{"source": "patent US10351575B2", "about": "“Bicyclic urea, thiourea, guanidine and cyanoguanidine compounds useful for the treatment of pain” (Array BioPharma Inc., priority 2012, dated 2019)", "assay_in_all_cases": "KinaseProfiler off-target kinase profiling", "type_in_all_cases": "biochemical", "settings_in_all_cases": "10 μM, ATP near Km", "key": {"FGFR4": {"target": "FGFR4 (Homo sapiens (Human), UniProt P22455)", "outline": "(§1)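 Duplicate single-dose screen (10 μM). ATP concentration approximates Km for the individual kinase. Values = average POC.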"}, "CK2": {"target": "CK2 (Homo sapiens (Human), UniProt P68400)", "outline": "as §1"}, "DMPK": {"target": "DMPK (Homo sapiens (Human), UniProt Q09013)", "outline": "as §1"}, "HIPK3": {"target": "HIPK3 (Homo sapiens (Human), UniProt Q9H422)", "outline": "as §1"}, "PRKG1beta": {"target": "PRKG1beta (Homo sapiens (Human), UniProt Q13976)", "outline": "as §1"}, "DAPK2": {"target": "DAPK2 (Homo sapiens (Human), UniProt Q9UIK4)", "outline": "as §1"}, "Fms": {"target": "Fms (Homo sapiens (Human), UniProt P07333)", "sequence (P07333 20-972)": "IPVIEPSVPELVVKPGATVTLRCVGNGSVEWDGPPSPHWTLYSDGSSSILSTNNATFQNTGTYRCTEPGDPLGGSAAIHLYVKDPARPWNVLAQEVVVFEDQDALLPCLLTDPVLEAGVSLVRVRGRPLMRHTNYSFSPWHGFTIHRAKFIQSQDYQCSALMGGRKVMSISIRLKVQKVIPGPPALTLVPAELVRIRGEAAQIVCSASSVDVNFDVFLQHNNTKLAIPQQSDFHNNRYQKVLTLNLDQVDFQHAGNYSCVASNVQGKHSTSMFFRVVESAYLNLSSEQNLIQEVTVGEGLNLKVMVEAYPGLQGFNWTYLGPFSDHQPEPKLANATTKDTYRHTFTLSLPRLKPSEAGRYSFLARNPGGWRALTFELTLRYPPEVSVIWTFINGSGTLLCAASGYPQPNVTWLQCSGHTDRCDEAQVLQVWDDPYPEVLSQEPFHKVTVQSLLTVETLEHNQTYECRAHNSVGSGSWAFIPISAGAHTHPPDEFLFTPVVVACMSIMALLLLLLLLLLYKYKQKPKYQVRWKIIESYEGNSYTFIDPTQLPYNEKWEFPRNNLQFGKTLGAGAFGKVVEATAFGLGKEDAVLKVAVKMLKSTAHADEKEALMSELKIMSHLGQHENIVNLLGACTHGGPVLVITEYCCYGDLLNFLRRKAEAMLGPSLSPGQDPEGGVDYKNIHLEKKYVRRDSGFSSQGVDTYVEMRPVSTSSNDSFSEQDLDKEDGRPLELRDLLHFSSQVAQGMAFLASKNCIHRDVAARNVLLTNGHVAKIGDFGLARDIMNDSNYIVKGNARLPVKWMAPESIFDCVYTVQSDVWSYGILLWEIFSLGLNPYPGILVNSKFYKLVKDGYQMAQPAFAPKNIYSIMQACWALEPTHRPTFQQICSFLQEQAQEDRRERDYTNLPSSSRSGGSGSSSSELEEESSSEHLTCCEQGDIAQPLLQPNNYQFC", "outline": "as §1"}, "PKD1": {"target": "PKD1 (Homo sapiens (Human), UniProt Q15139)", "outline": "as §1"}, "TSSK1": {"target": "TSSK1 (Homo sapiens (Human), UniProt Q9BXA7)", "outline": "as §1"}, "MARK2": {"target": "MARK2 (Homo sapiens (Human), UniProt Q7KZI7)", "sequence (Q7KZI7 whole entry)": "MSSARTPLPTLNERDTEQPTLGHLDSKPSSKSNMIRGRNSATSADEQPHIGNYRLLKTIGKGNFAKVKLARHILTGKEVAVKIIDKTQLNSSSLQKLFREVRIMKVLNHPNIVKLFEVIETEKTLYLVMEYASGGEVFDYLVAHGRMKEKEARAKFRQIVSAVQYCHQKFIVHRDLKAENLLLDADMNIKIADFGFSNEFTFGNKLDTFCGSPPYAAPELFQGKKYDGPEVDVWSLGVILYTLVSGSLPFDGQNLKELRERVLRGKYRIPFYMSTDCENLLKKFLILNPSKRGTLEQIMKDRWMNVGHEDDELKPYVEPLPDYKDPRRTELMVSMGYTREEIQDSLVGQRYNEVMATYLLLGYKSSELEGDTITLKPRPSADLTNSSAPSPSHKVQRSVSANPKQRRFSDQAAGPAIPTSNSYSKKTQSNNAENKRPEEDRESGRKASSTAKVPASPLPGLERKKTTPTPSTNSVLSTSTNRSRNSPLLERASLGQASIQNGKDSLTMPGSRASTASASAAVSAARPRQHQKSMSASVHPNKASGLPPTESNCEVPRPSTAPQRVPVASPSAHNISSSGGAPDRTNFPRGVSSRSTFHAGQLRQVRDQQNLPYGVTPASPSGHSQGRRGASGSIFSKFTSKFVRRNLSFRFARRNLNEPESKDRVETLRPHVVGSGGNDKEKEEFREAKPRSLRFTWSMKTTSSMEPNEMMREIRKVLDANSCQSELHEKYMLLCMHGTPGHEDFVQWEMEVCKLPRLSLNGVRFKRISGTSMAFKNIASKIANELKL", "outline": "as §1"}, "Pim-2": {"target": "Pim-2 (Homo sapiens (Human), UniProt Q9P1W9)", "outline": "as §1"}, "CHK2": {"target": "CHK2 (Homo sapiens (Human), UniProt O96017)", "outline": "as §1"}, "JNK2alpha2": {"target": "JNK2alpha2 (Homo sapiens (Human), UniProt P45984)", "outline": "as §1"}, "MSSK1": {"target": "MSSK1 (Homo sapiens (Human), UniProt Q9UPE1)", "sequence (Q9UPE1 whole entry)": "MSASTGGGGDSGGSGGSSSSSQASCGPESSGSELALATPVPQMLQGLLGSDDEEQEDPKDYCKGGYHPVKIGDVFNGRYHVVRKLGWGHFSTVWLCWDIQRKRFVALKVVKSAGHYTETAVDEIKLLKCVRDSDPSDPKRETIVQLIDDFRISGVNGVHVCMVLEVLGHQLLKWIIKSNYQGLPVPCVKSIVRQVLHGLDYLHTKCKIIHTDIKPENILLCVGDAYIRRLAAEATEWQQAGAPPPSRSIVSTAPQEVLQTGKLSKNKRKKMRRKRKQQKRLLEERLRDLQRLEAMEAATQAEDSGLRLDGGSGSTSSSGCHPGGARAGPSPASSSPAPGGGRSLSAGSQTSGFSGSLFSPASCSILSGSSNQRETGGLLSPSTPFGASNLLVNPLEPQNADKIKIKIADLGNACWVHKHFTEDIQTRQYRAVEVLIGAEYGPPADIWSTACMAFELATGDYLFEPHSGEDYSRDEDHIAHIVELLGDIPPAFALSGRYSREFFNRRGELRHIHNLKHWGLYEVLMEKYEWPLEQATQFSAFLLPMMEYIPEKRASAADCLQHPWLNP", "outline": "as §1"}, "Tie2": {"target": "Tie2 (Homo sapiens (Human), UniProt Q02763)", "outline": "as §1"}, "CDK7/cyclinH/MAT1": {"target": "CDK7/cyclinH/MAT1 (Homo sapiens (Human), UniProt P50613)", "outline": "as §1"}, "ROCK-II": {"target": "ROCK-II (Homo sapiens (Human), UniProt O75116)", "outline": "as §1"}, "FAK2": {"target": "FAK2 (Homo sapiens (Human), UniProt Q14289)", "outline": "as §1"}, "ULK3": {"target": "ULK3 (Homo sapiens (Human), UniProt Q6PHR2)", "sequence (Q6PHR2 whole entry)": "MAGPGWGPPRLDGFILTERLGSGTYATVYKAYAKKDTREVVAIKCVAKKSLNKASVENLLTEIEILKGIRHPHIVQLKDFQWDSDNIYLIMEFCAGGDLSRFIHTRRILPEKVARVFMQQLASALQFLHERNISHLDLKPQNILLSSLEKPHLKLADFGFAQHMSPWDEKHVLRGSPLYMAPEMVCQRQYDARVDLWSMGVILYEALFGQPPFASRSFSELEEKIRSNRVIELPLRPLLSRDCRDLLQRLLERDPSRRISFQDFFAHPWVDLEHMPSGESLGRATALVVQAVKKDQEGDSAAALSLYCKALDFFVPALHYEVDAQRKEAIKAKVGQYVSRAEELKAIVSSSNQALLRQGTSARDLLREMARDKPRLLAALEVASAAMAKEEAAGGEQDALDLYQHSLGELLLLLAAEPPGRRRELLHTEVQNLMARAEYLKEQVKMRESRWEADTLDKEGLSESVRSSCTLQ", "outline": "as §1"}, "VRK2": {"target": "VRK2 (Homo sapiens (Human), UniProt Q86Y07)", "outline": "as §1"}, "SRC": {"target": "SRC (Homo sapiens (Human), UniProt P12931)", "outline": "as §1"}, "DCAMKL2": {"target": "DCAMKL2 (Homo sapiens (Human), UniProt Q8N568)", "outline": "as §1"}, "CK1gamma3": {"target": "CK1gamma3 (Homo sapiens (Human), UniProt Q9Y6M4)", "outline": "as §1"}, "Rsk1": {"target": "Rsk1 (Homo sapiens (Human), UniProt Q15418)", "outline": "as §1"}, "IR": {"target": "IR (Homo sapiens (Human), UniProt P06213)", "outline": "as §1"}, "CK1_y": {"system": "CK1_y", "outline": "as §1"}, "MST3": {"target": "MST3 (Homo sapiens (Human), UniProt Q9Y6E0)", "outline": "as §1"}, "MRCKalpha": {"target": "MRCKalpha (Homo sapiens (Human), UniProt Q5VT25)", "outline": "as §1"}, "Ros": {"target": "Ros (Homo sapiens (Human), UniProt P08922)", "sequence (P08922 28-2347)": "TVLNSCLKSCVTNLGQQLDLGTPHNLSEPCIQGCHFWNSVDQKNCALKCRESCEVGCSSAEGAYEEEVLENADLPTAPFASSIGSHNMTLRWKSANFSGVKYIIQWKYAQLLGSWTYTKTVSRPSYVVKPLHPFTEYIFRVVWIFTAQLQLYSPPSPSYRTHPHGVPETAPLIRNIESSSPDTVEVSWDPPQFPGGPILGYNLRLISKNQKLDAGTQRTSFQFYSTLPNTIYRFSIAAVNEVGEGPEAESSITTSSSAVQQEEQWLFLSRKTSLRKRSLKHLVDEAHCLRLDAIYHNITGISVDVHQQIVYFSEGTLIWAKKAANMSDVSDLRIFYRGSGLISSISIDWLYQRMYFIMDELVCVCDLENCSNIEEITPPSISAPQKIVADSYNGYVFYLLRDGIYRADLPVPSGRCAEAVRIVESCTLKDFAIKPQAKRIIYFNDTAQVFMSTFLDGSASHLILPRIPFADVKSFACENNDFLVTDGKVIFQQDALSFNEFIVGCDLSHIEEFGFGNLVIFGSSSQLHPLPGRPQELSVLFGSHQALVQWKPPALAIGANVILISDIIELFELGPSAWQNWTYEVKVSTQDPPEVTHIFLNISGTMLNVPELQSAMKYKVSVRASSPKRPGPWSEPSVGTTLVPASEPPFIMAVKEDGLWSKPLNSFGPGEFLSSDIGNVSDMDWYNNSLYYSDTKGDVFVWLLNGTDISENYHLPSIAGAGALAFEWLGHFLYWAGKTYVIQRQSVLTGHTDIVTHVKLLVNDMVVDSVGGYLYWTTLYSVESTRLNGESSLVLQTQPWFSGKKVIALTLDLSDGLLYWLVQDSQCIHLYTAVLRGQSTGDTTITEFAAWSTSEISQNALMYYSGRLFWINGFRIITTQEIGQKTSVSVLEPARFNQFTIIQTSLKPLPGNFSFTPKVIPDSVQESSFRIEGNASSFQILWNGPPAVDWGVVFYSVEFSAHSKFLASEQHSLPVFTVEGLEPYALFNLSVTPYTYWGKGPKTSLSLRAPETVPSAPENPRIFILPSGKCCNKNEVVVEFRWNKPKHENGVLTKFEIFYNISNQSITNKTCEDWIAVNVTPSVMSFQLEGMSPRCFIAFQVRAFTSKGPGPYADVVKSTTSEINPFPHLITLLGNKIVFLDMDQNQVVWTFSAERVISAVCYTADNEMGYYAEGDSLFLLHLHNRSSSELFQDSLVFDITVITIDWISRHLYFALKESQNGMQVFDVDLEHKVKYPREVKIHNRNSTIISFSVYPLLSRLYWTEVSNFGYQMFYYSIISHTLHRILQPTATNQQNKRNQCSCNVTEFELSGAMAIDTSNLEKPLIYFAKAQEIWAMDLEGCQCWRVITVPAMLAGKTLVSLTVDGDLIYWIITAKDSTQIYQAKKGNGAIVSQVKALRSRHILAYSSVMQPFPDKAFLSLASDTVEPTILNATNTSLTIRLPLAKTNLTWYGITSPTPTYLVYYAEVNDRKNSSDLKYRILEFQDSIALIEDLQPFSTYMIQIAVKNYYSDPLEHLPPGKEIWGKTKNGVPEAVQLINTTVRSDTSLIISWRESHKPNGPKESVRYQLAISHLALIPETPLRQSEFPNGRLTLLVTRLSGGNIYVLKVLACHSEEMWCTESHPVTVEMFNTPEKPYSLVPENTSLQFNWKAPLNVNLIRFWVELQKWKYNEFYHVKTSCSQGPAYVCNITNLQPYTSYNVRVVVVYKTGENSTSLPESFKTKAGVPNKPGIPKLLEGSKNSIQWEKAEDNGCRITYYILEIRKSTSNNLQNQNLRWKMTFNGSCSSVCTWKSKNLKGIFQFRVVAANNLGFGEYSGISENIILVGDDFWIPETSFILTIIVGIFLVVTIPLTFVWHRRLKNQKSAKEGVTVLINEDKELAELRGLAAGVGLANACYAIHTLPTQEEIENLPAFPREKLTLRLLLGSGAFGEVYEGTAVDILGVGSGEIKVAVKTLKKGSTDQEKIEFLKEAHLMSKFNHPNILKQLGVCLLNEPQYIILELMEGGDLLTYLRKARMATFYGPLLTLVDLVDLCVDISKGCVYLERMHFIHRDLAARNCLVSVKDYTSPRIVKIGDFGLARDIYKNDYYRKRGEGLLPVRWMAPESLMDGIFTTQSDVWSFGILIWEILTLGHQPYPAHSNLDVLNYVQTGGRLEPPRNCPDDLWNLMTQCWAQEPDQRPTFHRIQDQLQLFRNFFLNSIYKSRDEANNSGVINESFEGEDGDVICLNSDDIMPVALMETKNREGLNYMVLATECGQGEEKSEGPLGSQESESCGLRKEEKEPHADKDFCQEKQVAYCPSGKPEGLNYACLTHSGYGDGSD", "outline": "as §1"}, "TrkA": {"target": "TrkA (Homo sapiens (Human), UniProt P04629)", "outline": "as §1"}, "EphA2": {"target": "EphA2 (Homo sapiens (Human), UniProt P29317)", "outline": "as §1"}, "CDK9/cyclinT1": {"target": "CDK9/cyclinT1 (Homo sapiens (Human), UniProt P50750)", "outline": "as §1"}, "TAO2": {"target": "TAO2 (Homo sapiens (Human), UniProt Q9UL54)", "outline": "as §1"}, "ALK4": {"target": "ALK4 (Homo sapiens (Human), UniProt P36896)", "outline": "as §1"}, "p38alpha": {"target": "p38alpha (Homo sapiens (Human), UniProt Q16539)", "outline": "as §1"}, "Abl2": {"target": "Abl2 (Homo sapiens (Human), UniProt P42684)", "outline": "as §1"}, "p38delta": {"target": "p38delta (Homo sapiens (Human), UniProt O15264)", "outline": "as §1"}, "Fyn": {"target": "Fyn (Homo sapiens (Human), UniProt P06241)", "outline": "as §1"}, "Abl-P": {"target": "Abl-P (Homo sapiens (Human), UniProt P00519)", "outline": "as §1"}}, "data": [{"smiles": "COCc1ccc2c(c1)C(NC(=O)Nc1c(C)c(-c3cnn(C)c3)nn1-c1ccccc1)COC2", "note": "(stereo not drawn) [Example 32, 1-(1′,4-dimethyl-1-phenyl-1H,1′H-[3,4′-bipyrazol]-5-yl)-3-(6-(methoxymethyl)isochroman-4-yl)urea]", "values": [{"measurement": "Avg. POC", "setting": "FGFR4", "result": 139.5, "unit": "POC"}, {"measurement": "Avg. POC", "setting": "CK2", "result": 97, "unit": "POC"}, {"measurement": "Avg. POC", "setting": "DMPK", "result": 98.5, "unit": "POC"}, {"measurement": "Avg. POC", "setting": "HIPK3", "result": 107, "unit": "POC"}, {"measurement": "Avg. POC", "setting": "PRKG1beta", "result": 80.5, "unit": "POC"}, {"measurement": "Avg. POC", "setting": "DAPK2", "result": 103, "unit": "POC"}, {"measurement": "Avg. POC", "setting": "Fms", "result": 102, "unit": "POC"}, {"measurement": "Avg. POC", "setting": "PKD1", "result": 98.5, "unit": "POC"}, {"measurement": "Avg. POC", "setting": "TSSK1", "result": 88.5, "unit": "POC"}, {"measurement": "Avg. POC", "setting": "MARK2", "result": 107.5, "unit": "POC"}, {"measurement": "Avg. POC", "setting": "Pim-2", "result": 116.5, "unit": "POC"}, {"measurement": "Avg. POC", "setting": "CHK2", "result": 112, "unit": "POC"}, {"measurement": "Avg. POC", "setting": "JNK2alpha2", "result": 102.5, "unit": "POC"}, {"measurement": "Avg. POC", "setting": "MSSK1", "result": 105.5, "unit": "POC"}, {"measurement": "Avg. POC", "setting": "Tie2", "result": 121, "unit": "POC"}, {"measurement": "Avg. POC", "setting": "CDK7/cyclinH/MAT1", "result": 122.5, "unit": "POC"}, {"measurement": "Avg. POC", "setting": "ROCK-II", "result": 106, "unit": "POC"}, {"measurement": "Avg. POC", "setting": "FAK2", "result": 101.5, "unit": "POC"}, {"measurement": "Avg. POC", "setting": "ULK3", "result": 92, "unit": "POC"}, {"measurement": "Avg. POC", "setting": "VRK2", "result": 100.5, "unit": "POC"}, {"measurement": "Avg. POC", "setting": "SRC", "result": 108.5, "unit": "POC"}, {"measurement": "Avg. POC", "setting": "DCAMKL2", "result": 146, "unit": "POC"}, {"measurement": "Avg. POC", "setting": "CK1gamma3", "result": 102, "unit": "POC"}, {"measurement": "Avg. POC", "setting": "Rsk1", "result": 111.5, "unit": "POC"}, {"measurement": "Avg. POC", "setting": "IR", "result": 109, "unit": "POC"}, {"measurement": "Avg. POC", "setting": "CK1_y", "result": 107.5, "unit": "POC"}, {"measurement": "Avg. POC", "setting": "MST3", "result": 130.5, "unit": "POC"}, {"measurement": "Avg. POC", "setting": "MRCKalpha", "result": 131, "unit": "POC"}, {"measurement": "Avg. POC", "setting": "Ros", "result": 97.5, "unit": "POC"}, {"measurement": "Avg. POC", "setting": "TrkA", "result": 0, "unit": "POC"}, {"measurement": "Avg. POC", "setting": "EphA2", "result": 118, "unit": "POC"}, {"measurement": "Avg. POC", "setting": "CDK9/cyclinT1", "result": 106.5, "unit": "POC"}, {"measurement": "Avg. POC", "setting": "TAO2", "result": 104, "unit": "POC"}, {"measurement": "Avg. POC", "setting": "ALK4", "result": 100.5, "unit": "POC"}, {"measurement": "Avg. POC", "setting": "p38alpha", "result": 96.5, "unit": "POC"}, {"measurement": "Avg. POC", "setting": "Abl2", "result": 121.5, "unit": "POC"}, {"measurement": "Avg. POC", "setting": "p38delta", "result": 113.5, "unit": "POC"}, {"measurement": "Avg. POC", "setting": "Fyn", "result": 111, "unit": "POC"}, {"measurement": "Avg. POC", "setting": "Abl-P", "result": 124.5, "unit": "POC"}]}]}
